Results as given in US9586968B2, “Bicycloamine-substituted-N-benzenesulfonamide compounds with selective activity in voltage-gated sodium channels” (Merck Sharp & Dohme Corp., priority 2013, dated 2017).

Legend:
[1] = target: T1, human Nav1.7 (Homo sapiens, UniProt Q15858); assay: PatchXpress automated patch-clamp, inactivated state block of Nav1.7; type: cell-based; conditions: channels stably expressed in HEK 293 cells, 22° C., read-out: potency for the Nav 1.7 sodium ion channel (as measured by PatchXpress)
T1 construct: expressed in transfected cells
T1 sequence (Q15858 whole entry): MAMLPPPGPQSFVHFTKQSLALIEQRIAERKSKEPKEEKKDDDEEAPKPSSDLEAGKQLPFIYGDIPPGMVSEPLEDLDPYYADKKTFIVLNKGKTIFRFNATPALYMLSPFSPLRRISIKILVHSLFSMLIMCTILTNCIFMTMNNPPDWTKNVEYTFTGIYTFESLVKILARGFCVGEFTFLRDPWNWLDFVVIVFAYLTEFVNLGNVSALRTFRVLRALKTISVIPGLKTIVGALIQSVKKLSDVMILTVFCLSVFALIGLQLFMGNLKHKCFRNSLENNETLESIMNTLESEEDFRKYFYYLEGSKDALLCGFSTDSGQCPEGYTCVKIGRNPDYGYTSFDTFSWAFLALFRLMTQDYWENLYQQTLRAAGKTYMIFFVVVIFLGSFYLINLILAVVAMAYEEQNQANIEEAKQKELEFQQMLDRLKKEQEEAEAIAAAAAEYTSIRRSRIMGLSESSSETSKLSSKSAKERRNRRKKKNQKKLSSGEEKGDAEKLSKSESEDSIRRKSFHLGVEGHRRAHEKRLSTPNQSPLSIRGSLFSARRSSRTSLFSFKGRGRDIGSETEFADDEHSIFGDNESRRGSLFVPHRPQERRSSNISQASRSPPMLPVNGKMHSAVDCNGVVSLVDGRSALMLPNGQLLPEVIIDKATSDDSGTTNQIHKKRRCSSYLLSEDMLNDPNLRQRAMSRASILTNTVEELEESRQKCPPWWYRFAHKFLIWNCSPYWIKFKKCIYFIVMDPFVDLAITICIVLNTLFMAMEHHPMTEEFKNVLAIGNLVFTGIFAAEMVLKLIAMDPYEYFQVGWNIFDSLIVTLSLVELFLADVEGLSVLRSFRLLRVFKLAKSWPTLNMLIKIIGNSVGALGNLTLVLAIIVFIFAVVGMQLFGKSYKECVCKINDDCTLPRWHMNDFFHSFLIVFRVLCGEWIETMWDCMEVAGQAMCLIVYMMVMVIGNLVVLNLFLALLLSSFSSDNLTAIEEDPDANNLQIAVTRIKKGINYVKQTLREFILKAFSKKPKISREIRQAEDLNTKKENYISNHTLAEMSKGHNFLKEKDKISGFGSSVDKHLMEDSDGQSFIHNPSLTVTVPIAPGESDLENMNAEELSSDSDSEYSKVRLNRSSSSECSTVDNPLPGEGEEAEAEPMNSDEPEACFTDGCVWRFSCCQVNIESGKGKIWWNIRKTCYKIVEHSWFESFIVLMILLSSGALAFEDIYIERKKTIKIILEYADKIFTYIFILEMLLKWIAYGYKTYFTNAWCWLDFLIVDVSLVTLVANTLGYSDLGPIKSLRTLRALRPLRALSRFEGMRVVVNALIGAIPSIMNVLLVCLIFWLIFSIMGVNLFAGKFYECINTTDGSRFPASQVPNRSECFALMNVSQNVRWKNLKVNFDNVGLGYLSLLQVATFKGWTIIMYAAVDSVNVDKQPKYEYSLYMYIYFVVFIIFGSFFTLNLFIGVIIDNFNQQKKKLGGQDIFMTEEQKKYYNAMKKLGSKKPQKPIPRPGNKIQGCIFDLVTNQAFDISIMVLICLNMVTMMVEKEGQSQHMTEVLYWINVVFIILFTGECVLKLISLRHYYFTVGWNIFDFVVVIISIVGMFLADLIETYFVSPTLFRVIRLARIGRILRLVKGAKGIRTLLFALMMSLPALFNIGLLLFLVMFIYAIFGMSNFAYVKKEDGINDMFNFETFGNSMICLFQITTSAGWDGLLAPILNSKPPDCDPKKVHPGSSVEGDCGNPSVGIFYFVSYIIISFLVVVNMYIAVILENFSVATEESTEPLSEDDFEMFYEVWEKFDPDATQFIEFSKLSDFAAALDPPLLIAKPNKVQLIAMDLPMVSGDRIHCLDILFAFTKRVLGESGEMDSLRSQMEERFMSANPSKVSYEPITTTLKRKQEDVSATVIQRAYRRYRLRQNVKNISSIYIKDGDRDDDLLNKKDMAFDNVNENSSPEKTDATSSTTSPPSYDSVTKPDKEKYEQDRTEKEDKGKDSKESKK
Description: (§1) Compounds were tested on human Nav1.7 and Nav1.5 channels stably expressed in HEK 293 cells. Activity toward Nav 1.7 and Nav 1.5 channels was assessed using the following assay methodology.
(§2) Sodium Current Measurements on the PatchXpress 7000®:
(§3) To measure inactivated state block of sodium channels, test compounds were characterized in an automated PatchXpress® assay (Molecular Devices) using a double-pulse protocol on human Nav1.7 and Nav1.5 channels stably expressed in HEK 293 cells. Cells were held at a potential 20 mV negative to V0.5 inact. An 8000 ms pre-pulse 7 mV positive to V0.5 inact was given followed by a hyperpolarizing 2 ms pulse to −120 mV and a 20 ms test pulse to −20 mV. Protocol was applied to cells in the absence, presence of compound and after washout. The temperature of PatchXpress instruments was maintained at 22° C. The following recording solutions were used. Internal solution (mM): 30 CsCl, 5 HEPES, 10 EGTA, 120 CsF, 5 NaF, 2 MgCl2. External solution (mM): 120 NMDG, 40 NaCl, 1 KCl, 0.5 MgCl2, 5 HEPES, 2.7 CaCl2.
(§4) For all electrophysiology experiments, offline analysis was used to correct for current rundown and to determine percent inhibition as a function of drug concentration. IC50 values were determined by fitting to the Hill equation.

[2] = target: T2, human Nav1.5 (Homo sapiens, UniProt Q14524); assay: PatchXpress automated patch-clamp, inactivated state block of Nav1.5 (selectivity); type: cell-based; conditions: determined by PatchXpress measurement, HEK 293 cells
T2 construct: expressed in transfected cells
T2 sequence (Q14524 whole entry): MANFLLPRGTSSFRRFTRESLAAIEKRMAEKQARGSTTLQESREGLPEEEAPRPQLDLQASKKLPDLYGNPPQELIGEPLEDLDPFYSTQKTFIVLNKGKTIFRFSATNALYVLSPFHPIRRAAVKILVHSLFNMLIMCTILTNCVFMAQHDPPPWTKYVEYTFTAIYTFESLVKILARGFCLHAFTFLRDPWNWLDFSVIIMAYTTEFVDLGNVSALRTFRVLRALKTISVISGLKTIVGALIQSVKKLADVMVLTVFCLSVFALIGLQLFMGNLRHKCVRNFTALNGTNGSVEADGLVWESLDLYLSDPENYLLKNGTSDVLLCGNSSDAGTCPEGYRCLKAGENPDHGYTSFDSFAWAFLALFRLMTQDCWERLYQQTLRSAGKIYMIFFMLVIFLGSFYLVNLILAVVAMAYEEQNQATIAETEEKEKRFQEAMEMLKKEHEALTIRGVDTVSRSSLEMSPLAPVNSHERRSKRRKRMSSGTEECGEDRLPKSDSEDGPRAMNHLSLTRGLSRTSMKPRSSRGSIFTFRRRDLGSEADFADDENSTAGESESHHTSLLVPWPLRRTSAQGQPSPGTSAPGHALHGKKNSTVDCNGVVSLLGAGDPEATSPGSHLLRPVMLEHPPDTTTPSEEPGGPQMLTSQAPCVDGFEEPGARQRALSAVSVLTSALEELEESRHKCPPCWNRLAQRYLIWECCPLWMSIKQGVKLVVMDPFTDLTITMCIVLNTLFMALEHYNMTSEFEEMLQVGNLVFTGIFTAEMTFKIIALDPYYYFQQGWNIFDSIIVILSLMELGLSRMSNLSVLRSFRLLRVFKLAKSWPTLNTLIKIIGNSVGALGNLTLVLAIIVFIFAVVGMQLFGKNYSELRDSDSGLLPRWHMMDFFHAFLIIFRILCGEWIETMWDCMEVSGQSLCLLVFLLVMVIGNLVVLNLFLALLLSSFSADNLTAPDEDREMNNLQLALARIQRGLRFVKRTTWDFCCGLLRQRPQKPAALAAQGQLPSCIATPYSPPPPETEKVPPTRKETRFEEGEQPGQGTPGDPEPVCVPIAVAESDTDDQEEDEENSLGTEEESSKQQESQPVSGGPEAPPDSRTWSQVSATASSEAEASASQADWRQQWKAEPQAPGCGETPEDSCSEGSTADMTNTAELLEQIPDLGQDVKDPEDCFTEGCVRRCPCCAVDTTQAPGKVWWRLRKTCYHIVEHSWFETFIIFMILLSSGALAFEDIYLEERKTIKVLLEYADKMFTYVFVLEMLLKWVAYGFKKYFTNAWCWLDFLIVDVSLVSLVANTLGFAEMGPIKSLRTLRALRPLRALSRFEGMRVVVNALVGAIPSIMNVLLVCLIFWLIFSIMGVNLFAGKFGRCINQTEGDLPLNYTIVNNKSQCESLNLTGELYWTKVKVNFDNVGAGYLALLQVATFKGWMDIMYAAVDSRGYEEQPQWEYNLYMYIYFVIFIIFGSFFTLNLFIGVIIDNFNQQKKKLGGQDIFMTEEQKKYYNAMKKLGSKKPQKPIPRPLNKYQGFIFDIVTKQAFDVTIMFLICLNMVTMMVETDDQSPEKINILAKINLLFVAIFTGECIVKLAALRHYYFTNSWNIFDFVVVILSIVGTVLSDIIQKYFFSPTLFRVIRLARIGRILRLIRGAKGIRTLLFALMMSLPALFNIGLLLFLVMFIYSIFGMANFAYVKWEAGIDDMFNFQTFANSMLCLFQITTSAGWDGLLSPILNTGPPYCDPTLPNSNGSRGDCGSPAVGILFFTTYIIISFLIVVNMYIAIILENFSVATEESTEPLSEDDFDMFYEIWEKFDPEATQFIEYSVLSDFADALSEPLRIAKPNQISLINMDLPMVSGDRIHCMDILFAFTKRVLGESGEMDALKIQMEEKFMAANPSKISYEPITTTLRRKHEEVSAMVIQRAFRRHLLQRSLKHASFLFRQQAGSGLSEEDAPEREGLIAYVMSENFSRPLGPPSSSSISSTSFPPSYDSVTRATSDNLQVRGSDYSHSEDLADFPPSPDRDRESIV
Description: as §1, §2, §3, §4

Row | SMILES | IC50 [1] | ratio of Nav1.7 potency:Nav 1.5 potency [2]
1 | O=S(=O)(Nc1nncs1)c1cc(Cl)c(NCC23CCCN2CCC3)cc1F [Ex1-5, 5-chloro-2-fluoro-4-[(tetrahydro-1H-pyrrolizin-7a(5H)-ylmethyl)amino]-N-(1,3,4-thiadiazol-2-yl)benzenesulfonamide] | 370 nM | 81
2 | N#Cc1cc(S(=O)(=O)Nc2nccs2)ccc1NCC12CCCN1CCC2 [Ex2-2, 3-cyano-4-[(tetrahydro-1H-pyrrolizin-7a(5H)-ylmethyl)amino]-N-(1,3-thiazol-2-yl)benzenesulfonamide] | 40 nM | 746
3 | O=S(=O)(Nc1cccnn1)c1cc(Cl)c(NCC23CCCN2CCC3)cc1F [Ex3-5, 5-chloro-2-fluoro-N-(pyridazin-3-yl)-4-[(tetrahydro-1H-pyrrolizin-7a(5H)-ylmethyl)amino]benzene-sulfonamide] | 1000 nM | 100
4 | N#Cc1cc(S(=O)(=O)Nc2nccs2)c(F)cc1NCC12CCCN1CCC2 [Ex1-10, 5-cyano-2-fluoro-4-[(tetrahydro-1H-pyrrolizin-7a(5H)-ylmethyl)amino]-N-(1,3-thiazol-2-yl)benzenesulfonamide] | 221 nM | 94
5 | O=S(=O)(Nc1nccs1)c1cc(Cl)c(NCC23CCCCN2CCC3)cc1F (single isomer, unassigned) [Ex17-7-A, (S or R) 5-chloro-2-fluoro-4-(((octahydroindolizin-8a-yl)methyl)amino)-N-(thiazol-2-yl)benzenesulfonamide] | 113 nM | 450
6 | O=S(=O)(Nc1cccc(F)n1)c1cc(F)c(NCC23CCCN2CCC3)cc1F [Ex2-4, 2,5-difluoro-N-(6-fluoropyridin-2-yl)-4-[(tetrahydro-1H-pyrrolizin-7a(5H)-ylmethyl)amino]benzene-sulfonamide] | 350 nM | 269
7 | N#Cc1cc(S(=O)(=O)Nc2ncns2)ccc1NCC12CCCN1CCC2 [Ex1-6, 3-cyano-4-[(tetrahydro-1H-pyrrolizin-7a(5H)-ylmethyl)amino]-N-(1,2,4-thiadiazol-5-yl)benzenesulfonamide] | 86 nM | 349
8 | N#Cc1cc(S(=O)(=O)Nc2ncc(Cl)s2)ccc1NCC12CCCN1CCC2 [Ex3-4, N-(5-chloro-1,3-thiazol-2-yl)-3-cyano-4-[(tetrahydro-1H-pyrrolizin-7a(5H)-ylmethyl)amino]benzene-sulfonamide] | 151 nM | 199
9 | O=S(=O)(Nc1ncc(Cl)s1)c1cc(Cl)c(NCC23CCCN2CC(F)(F)C3)cc1F (racemic) [Ex6-8, (R and S)-5-chloro-N-(5-chloro-1,3-thiazol-2-yl)-4-{[(2,2-difluorotetrahydro-1H-pyrrolizin-7a(5H)-yl)methyl]amino}-2-fluorobenzenesulfonamide] | 1300 nM | 19
10 | N#Cc1cc(S(=O)(=O)Nc2nccs2)ccc1NCC12CCCN1CC(F)(F)C2 (racemic) [Ex6-6, (R and S)-3-cyano-4-{[(2,2-difluorotetrahydro-1H-pyrrolizin-7a(5H)-yl)methyl]amino}-N-(1,3-thiazol-2-yl)benzenesulfonamide] | 472 nM | 64
11 | C[C@H]1CC[C@]2(CNc3cc(F)c(S(=O)(=O)Nc4nccs4)cc3Cl)CCCN12 (single isomer, unassigned) [Ex11-8-A] | 35 nM | 305

Continued by falling IC50 [1], values first:

Row | IC50 [1] | SMILES | ratio of Nav1.7 potency:Nav 1.5 potency [2]
12 | 34 nM | Cc1cc(S(=O)(=O)Nc2nccs2)c(F)cc1NCC12CCCN1CCC2 [Ex1-15, 2-fluoro-4-(((hexahydro-1H-pyrrolizin-7a-yl)methyl)amino)-5-methyl-N-(thiazol-2-yl)benzenesulfonamide] | 1149
13 | 32 nM | Cc1csc(NS(=O)(=O)c2cc(Cl)c(NCC34CCCN3CC(C)(C)C4)cc2F)n1 (racemic) [Ex8-25, (R and S)-5-chloro-4-(((2,2-dimethylhexahydro-1H-pyrrolizin-7a-yl)methyl)amino)-2-fluoro-N-(4-methylthiazol-2-yl)benzenesulfonamide] | 947
14 | 30 nM | COc1ccc(C[C@@H]2CN3CCC[C@]3(CNc3cc(F)c(S(=O)(=O)Nc4nccs4)cc3Cl)C2)cc1 (single isomer, unassigned) [Ex15-10-B] | 308
15 | 28 nM | O=S(=O)(Nc1nccs1)c1cc(Cl)c(NC[C@@]23CCCN2[C@H](CO)CC3)cc1F (single isomer, unassigned) [Ex14-11-A] | 1062
16 | 25 nM | O=S(=O)(Nc1ncc(Cl)s1)c1cc(Cl)c(NCC23CCCN2CC2(C3)OCCO2)cc1F (single isomer, unassigned) [Ex10-9-A, (S or R)-5-chloro-N-(5-chlorothiazol-2-yl)-2-fluoro-4-(((hexahydro-spiro[[1,3]dioxolane-2,2′-pyrrolizin]-7a′-yl)-methyl)amino)-benzenesulfonamide] | 1210
17 | 22 nM | CC1CCC2(CNc3ccc(S(=O)(=O)Nc4nccs4)cc3C(F)(F)F)CCCN12 (single isomer, unassigned) [Ex11-10-A, 4-((((3S,7aS or 3R,7aR)-3-methyl-hexahydro-1H-pyrrolizin-7a-yl)methyl)-amino)-N-(thiazol-2-yl)-3-(trifluoromethyl)-benzenesulfonamide] | 1376
18 | 22 nM | CC1CCC2(CNc3ccc(S(=O)(=O)Nc4ncc(F)s4)cc3Cl)CCCN12 (single isomer, unassigned) [Ex11-12-A, 3-chloro-N-(5-fluorothiazol-2-yl)-4-((((3S,7aS or 3R,7aR)-3-methylhexahydro-1H-pyrrolizin-7a-yl)methyl)amino)benzene-sulfonamide] | 1335
19 | 22 nM | O=S(=O)(Nc1ncc(F)s1)c1ccc(NCC23CCCN2CC2(CC2)C3)c(C(F)(F)F)c1 (single isomer, unassigned) [Ex13-12-A, (S or R)-N-(5-fluorothiazol-2-yl)-4-(((hexahydrospiro-[cyclopropane-1,2′-pyrrolizin]-7a′-yl)methyl)-amino)-3-(trifluoromethyl)-benzenesulfonamide] | 756
20 | 10 nM | O=S(=O)(Nc1nccs1)c1cc(Cl)c(NC[C@]23CCCN2[C@@H](CO)CC3)cc1F (single isomer, unassigned) [Ex14-11-B] | 3045
21 | 10 nM | CC1CN2CCCC2(CNc2cc(F)c(S(=O)(=O)Nc3ncc(Cl)s3)cc2Cl)C1 [Ex4-10, 5-chloro-N-(5-chlorothiazol-2-yl)-2-fluoro-4-((((2S,7aR and 2R,7aS)-2-methylhexahydro-1H-pyrrolizin-7a-yl)methyl)-amino)benzene-sulfonamide] | 2681
22 | 5 nM | O=S(=O)(Nc1nccs1)c1cc(Br)c(NCC23CCCN2CCC3)cc1F [Ex1-17, 5-bromo-2-fluoro-4-(((hexahydro-1H-pyrrolizin-7a-yl)methyl)amino)-N-(thiazol-2-yl)benzenesulfonamide] | 670
